Active and inactive are the calls of the source. No rule for the calls is given here.

The series concerns CCRIS mutagenicity, Ames/micronucleus/aberration tests. As to the kind of experiment: CCRIS mutagenicity studies.
[1] abbreviates: Test System: AMES SALMONELLA TYPHIMURIUM, Strain/Indicator: TA98, Metabolic Activation: NONE, Method: PREINCUBATION
Where [2] appears, read: Test System: AMES SALMONELLA TYPHIMURIUM, Strain/Indicator: TA100, Metabolic Activation: NONE, Method: PREINCUBATION
The mark [3] stands for this setting: Test System: AMES SALMONELLA TYPHIMURIUM, Strain/Indicator: TA1537, Metabolic Activation: NONE, Method: PREINCUBATION
Where [4] appears, read: Test System: MOUSE LYMPHOMA, Strain/Indicator: L5178Y (TK+/TK-), Metabolic Activation: NONE, Method: SUSPENSION/PLATE.
Where [5] appears, read: Test System: AMES SALMONELLA TYPHIMURIUM, Strain/Indicator: TA1535, Metabolic Activation: NONE, Method: PREINCUBATION

Consider `S=C1NCCN1`, for which the mutagenic call is “inactive; negative” (Test System: AMES SALMONELLA TYPHIMURIUM, Strain/Indicator: TA98, Metabolic Activation: HAMSTER, LIVER, S-9, AROCLOR 1254 (10%), Method: PREINCUBATION); “inactive; negative” under setting [1]; “inactive; negative” (Test System: AMES SALMONELLA TYPHIMURIUM, Strain/Indicator: TA98, Metabolic Activation: NONE, Method: STANDARD PLATE); “inactive; negative” (Test System: AMES SALMONELLA TYPHIMURIUM, Strain/Indicator: TA98, Metabolic Activation: RAT, LIVER, S-9, AROCLOR 1254 (10%), Method: PREINCUBATION); “inactive; negative” (Test System: AMES SALMONELLA TYPHIMURIUM, Strain/Indicator: TA98, Metabolic Activation: RAT, LIVER, S-9, AROCLOR 1254, Method: STANDARD PLATE); “inactive; negative” (Test System: AMES SALMONELLA TYPHIMURIUM, Strain/Indicator: TA100, Metabolic Activation: HAMSTER, LIVER, S-9, AROCLOR 1254 (10%), Method: PREINCUBATION). In addition, the mutagenic call is, setting by setting: under setting [2], “inactive; negative”; (Test System: AMES SALMONELLA TYPHIMURIUM, Strain/Indicator: TA100, Metabolic Activation: NONE, Method: STANDARD PLATE) “inactive; negative”; (Test System: AMES SALMONELLA TYPHIMURIUM, Strain/Indicator: TA100, Metabolic Activation: RAT, LIVER, S-9, AROCLOR 1254 (10%), Method: PREINCUBATION) “inactive; negative”; (Test System: AMES SALMONELLA TYPHIMURIUM, Strain/Indicator: TA100, Metabolic Activation: RAT, LIVER, S-9, AROCLOR 1254, Method: STANDARD PLATE) “inactive; negative”; (Test System: AMES SALMONELLA TYPHIMURIUM, Strain/Indicator: TA102, Metabolic Activation: NONE, Method: STANDARD PLATE) “inactive; negative”; (Test System: AMES SALMONELLA TYPHIMURIUM, Strain/Indicator: TA102, Metabolic Activation: RAT, LIVER, S-9, AROCLOR 1254, Method: STANDARD PLATE) “inactive; negative”. Besides, the mutagenic call is, setting by setting: (Test System: AMES SALMONELLA TYPHIMURIUM, Strain/Indicator: TA104, Metabolic Activation: NONE, Method: STANDARD PLATE) “inactive; negative”; (Test System: AMES SALMONELLA TYPHIMURIUM, Strain/Indicator: TA104, Metabolic Activation: RAT, LIVER, S-9, AROCLOR 1254, Method: STANDARD PLATE) “inactive; negative”; (Test System: AMES SALMONELLA TYPHIMURIUM, Strain/Indicator: TA1535, Metabolic Activation: NONE, Method: STANDARD PLATE) “active; positive”; (Test System: AMES SALMONELLA TYPHIMURIUM, Strain/Indicator: TA1535, Metabolic Activation: S-9 MIX, Method: STANDARD PLATE) “active; positive”; (Test System: AMES SALMONELLA TYPHIMURIUM, Strain/Indicator: TA1537, Metabolic Activation: HAMSTER, LIVER, S-9, AROCLOR 1254 (10%), Method: PREINCUBATION) “inactive; negative”; under setting [3], “inactive; negative”. The mutagenic call reads like this: (Test System: AMES SALMONELLA TYPHIMURIUM, Strain/Indicator: TA1537, Metabolic Activation: RAT, LIVER, S-9, AROCLOR 1254 (10%), Method: PREINCUBATION) “inactive; negative”; under setting [4], “inactive; negative”; (Test System: MOUSE LYMPHOMA, Strain/Indicator: L5178Y (TK+/TK-), Metabolic Activation: RAT, LIVER, S-9, AROCLOR 1254, Method: SUSPENSION/PLATE) “active; positive”.
Take `[CH3][Hg][Cl]`: the mutagenic call is “active; positive (structural changes)” (End Point: IN VITRO CHROMOSOMAL ABERRATIONS, Test System: CHO CELLS, Metabolic Activation: NONE); “active; positive” (End Point: IN VITRO MICRONUCLEUS, Test System: CHL/IU CELLS, Metabolic Activation: NONE); “active; positive” (End Point: IN VITRO MICRONUCLEUS, Test System: HUMAN PERIPHERAL LYMPHOCYTES, Metabolic Activation: NONE); “active; positive” (End Point: IN VITRO MICRONUCLEUS, Test System: HUMAN PERIPHERAL LYMPHOCYTES, Metabolic Activation: NONE, Method: FISH (CENTROMERIC SIGNAL CONTENT)); “inactive; negative” (Test System: AMES SALMONELLA TYPHIMURIUM, Strain/Indicator: TA97, Metabolic Activation: HAMSTER, LIVER, S-9, AROCLOR 1254 (10 OR 30%), Method: PREINCUBATION); “inactive; negative” (Test System: AMES SALMONELLA TYPHIMURIUM, Strain/Indicator: TA97, Metabolic Activation: NONE, Method: PREINCUBATION). Further, the mutagenic call is “inactive; negative” (Test System: AMES SALMONELLA TYPHIMURIUM, Strain/Indicator: TA97, Metabolic Activation: RAT, LIVER, S-9, AROCLOR 1254 (10 OR 30%), Method: PREINCUBATION); “inactive; negative” (Test System: AMES SALMONELLA TYPHIMURIUM, Strain/Indicator: TA98, Metabolic Activation: HAMSTER, LIVER, S-9, AROCLOR 1254 (10 OR 30%), Method: PREINCUBATION); “inactive; negative” under setting [1]; “inactive; negative” (Test System: AMES SALMONELLA TYPHIMURIUM, Strain/Indicator: TA98, Metabolic Activation: RAT, LIVER, S-9, AROCLOR 1254 (10 OR 30%), Method: PREINCUBATION); “inactive; negative” (Test System: AMES SALMONELLA TYPHIMURIUM, Strain/Indicator: TA100, Metabolic Activation: HAMSTER, LIVER, S-9, AROCLOR 1254 (10 OR 30%), Method: PREINCUBATION); “inactive; negative” under setting [2]. Besides, the mutagenic call (Test System: AMES SALMONELLA TYPHIMURIUM, Strain/Indicator: TA100, Metabolic Activation: RAT, LIVER, S-9, AROCLOR 1254 (10 OR 30%), Method: PREINCUBATION) is “inactive; negative”; the mutagenic call (Test System: AMES SALMONELLA TYPHIMURIUM, Strain/Indicator: TA1535, Metabolic Activation: HAMSTER, LIVER, S-9, AROCLOR 1254 (10 OR 30%), Method: PREINCUBATION) was “inactive; negative”; the mutagenic call under setting [5] was “inactive; negative”; the mutagenic call (Test System: AMES SALMONELLA TYPHIMURIUM, Strain/Indicator: TA1535, Metabolic Activation: RAT, LIVER, S-9, AROCLOR 1254 (10 OR 30%), Method: PREINCUBATION) was “inactive; negative”; the mutagenic call (Test System: AMES SALMONELLA TYPHIMURIUM, Strain/Indicator: TA1537, Metabolic Activation: HAMSTER, LIVER, S-9, AROCLOR 1254 (10 OR 30%), Method: PREINCUBATION) is “inactive; negative”; the mutagenic call under setting [3] was “inactive; negative”. For the same compound, the mutagenic call is, setting by setting: (Test System: AMES SALMONELLA TYPHIMURIUM, Strain/Indicator: TA1537, Metabolic Activation: RAT, LIVER, S-9, AROCLOR 1254 (10 OR 30%), Method: PREINCUBATION) “inactive; negative”; (Test System: E. COLI, Strain/Indicator: WP2 UVRA, Metabolic Activation: NONE, Method: SPOT TEST) “active; positive”; (Test System: E. COLI, Strain/Indicator: WP2 UVRA, Metabolic Activation: NONE, Method: STANDARD PLATE) “active; positive”.
In the case of `c1ccc2occc2c1`, the mutagenic call is “inactive; negative” (Test System: AMES SALMONELLA TYPHIMURIUM, Strain/Indicator: TA98, Metabolic Activation: HAMSTER, LIVER, S-9, AROCLOR 1254, Method: PREINCUBATION); “inactive; negative” under setting [1]; “inactive; negative” (Test System: AMES SALMONELLA TYPHIMURIUM, Strain/Indicator: TA98, Metabolic Activation: RAT, LIVER, S-9, AROCLOR 1254, Method: PREINCUBATION); “inactive; negative” (Test System: AMES SALMONELLA TYPHIMURIUM, Strain/Indicator: TA100, Metabolic Activation: HAMSTER, LIVER, S-9, AROCLOR 1254, Method: PREINCUBATION); “inactive; negative” under setting [2]; “inactive; negative” (Test System: AMES SALMONELLA TYPHIMURIUM, Strain/Indicator: TA100, Metabolic Activation: RAT, LIVER, S-9, AROCLOR 1254, Method: PREINCUBATION). Also, the mutagenic call reads like this: (Test System: AMES SALMONELLA TYPHIMURIUM, Strain/Indicator: TA1535, Metabolic Activation: HAMSTER, LIVER, S-9, AROCLOR 1254, Method: PREINCUBATION) “inactive; negative”; under setting [5], “inactive; negative”; (Test System: AMES SALMONELLA TYPHIMURIUM, Strain/Indicator: TA1535, Metabolic Activation: RAT, LIVER, S-9, AROCLOR 1254, Method: PREINCUBATION) “inactive; negative”; (Test System: AMES SALMONELLA TYPHIMURIUM, Strain/Indicator: TA1537, Metabolic Activation: HAMSTER, LIVER, S-9, AROCLOR 1254, Method: PREINCUBATION) “inactive; negative”; under setting [3], “inactive; negative”; (Test System: AMES SALMONELLA TYPHIMURIUM, Strain/Indicator: TA1537, Metabolic Activation: RAT, LIVER, S-9, AROCLOR 1254, Method: PREINCUBATION) “inactive; negative”. Also, the mutagenic call under setting [4] was “active; positive”.

Source of the values: PubChem BioAssay AID1259407 (Chemical Carcinogenesis Research Information System (CCRIS), 2018).
